# What was measured:
# [1] = system: pediatric cancer patient having drug-induced myocardial dysfunction caused by an anthracycline anticancer drug; details: cited from earlier work
# [2] = system: early breast cancer patient treated with an anthracycline anticancer drug; details: cited from earlier work
# [3] = system: post-myocardial infarction heart failure; details: ischemic heart failure; earlier work of the inventors; cited from earlier work
# [4] = system: inflammatory cytokine expression in myocardial tissues; test: Inflammatory cytokine gene expression in myocardial tissue, quantitative real-time RT-PCR; type: in vivo, C57BL/6 mice; details: 14 days after DOX
# Method: (§1) Eight-week-old male C57BL/6 mice were divided into three groups (Control group, DOX group, and DOX+α-GC group). α-GalCer (KRN7000 (Funakoshi Co., Ltd.); 0.1 μg/g weight) was intraperitoneally administered to the DOX+α-GC group, while PBS was intraperitoneally administered to the Control group and the DOX group. Four days after the administration, doxorubicin (Doxorubicin hydrochloride, D1515 (SIGMA-ALDRICH); 20 mg/kg weight) was intraperitoneally administered to the DOX group and the DOX+α-GC group, while Vehicle (PBS) was intraperitoneally administered to the Control group. Three days after the administration of DOX or PBS, α-GalCer (0.1 μg/g weight) was intraperitoneally administered to the DOX+α-GC group, while PBS was intraperitoneally administered to the Control group and the DOX group. Fourteen days after the administration of DOX or PBS, echocardiography was performed for mice of each of the groups to evaluate their cardiac functions, and subsequently, the hearts of the mice were collected to perform pathological evaluation of myocardial tissue fibrosis and evaluation of inflammatory cytokine expression by using a quantitative real-time RT-PCR method. FIG. 1 illustrates the test schedules.
# Furthermore, total RNA was extracted from myocardial tissues using QuickGene-810 (FUJIFILM Corporation), and subjected to a reverse transcription reaction using a cDNA reverse transcription kit (Applied Biosystems) to prepare cDNA. Using this cDNA as a template, a quantitative real-time RT-PCR was performed by the TaqMan method to evaluate the expression of inflammatory cytokine. Primer sets and probes used (all of them from Applied Biosystems) were as follows. GAPDH was used as an endogenous control. • IFN-γ: TaqMan Gene Expression Assays, Mm01168134 ml • TNF-α: TaqMan Gene Expression Assays, Mm00443258 ml • IL-1β: TaqMan Gene Expression Assays, Mm00434228 ml • TGF-β1: TaqMan Gene Expression Assays, Mm01178820 ml • IL-4: TaqMan Gene Expression Assays, Mm00445259 ml • IL-10: TaqMan Gene Expression Assays, Mm01288386 ml • GAPDH: Mouse GAPD (20X), Probe dye VIC-MGB
# [5] = system: activated, M1 and M2 macrophage markers in myocardial tissues; test: Macrophage marker gene expression in myocardial tissue, quantitative real-time RT-PCR; type: in vivo, C57BL/6 mice; details: 14 days after DOX, FIG. 6
# Method: Eight-week-old male C57BL/6 mice were divided into three groups (Control group, DOX group, and DOX+α-GC group). α-GalCer (KRN7000 (Funakoshi Co., Ltd.); 0.1 μg/g weight) was intraperitoneally administered to the DOX+α-GC group, while PBS was intraperitoneally administered to the Control group and the DOX group. Four days after the administration, doxorubicin (Doxorubicin hydrochloride, D1515 (SIGMA-ALDRICH); 20 mg/kg weight) was intraperitoneally administered to the DOX group and the DOX+α-GC group, while Vehicle (PBS) was intraperitoneally administered to the Control group. Three days after the administration of DOX or PBS, α-GalCer (0.1 μg/g weight) was intraperitoneally administered to the DOX+α-GC group, while PBS was intraperitoneally administered to the Control group and the DOX group. Fourteen days after the administration of DOX or PBS, echocardiography was performed for mice of each of the groups to evaluate their cardiac functions, and subsequently, the hearts of the mice were collected to perform pathological evaluation of myocardial tissue fibrosis and evaluation of inflammatory cytokine expression by using a quantitative real-time RT-PCR method. FIG. 1 illustrates the test schedules. Furthermore, using the above-mentioned cDNA as a template, a quantitative real-time RT-PCR was performed by the TaqMan method using the following primer sets and probes (all of them from Applied Biosystems) to evaluate the expression of CD11c and MHC II (activated macrophage markers), MCP-1, iNOS, and IL-1β (M1 macrophage markers), and […] and Arginase 1 (Arg1) (M2 macrophage markers). GAPDH was used as an endogenous control. • CD11c: TaqMan Gene Expression Assays, Mm00498701 ml • MHC II (H2-A1): TaqMan Gene Expression Assays, Mm00439211 ml • MCP1 (CCL2): TaqMan Gene Expression Assays, Mm00441242 ml • iNOS (NOS2): TaqMan Gene Expression Assays, Mm00440502 ml • IL-1β: TaqMan Gene Expression Assays, Mm00434228 ml • […]: TaqMan Gene Expression Assays, Mm00445109 ml • Arg1: TaqMan Gene Expression Assays, Mm00475988 ml • GAPDH: Mouse GAPD (20X), Probe dye VIC-MGB
# [6] = system: myocardial dysfunction model mice induced by doxorubicin; test: Myocardial tissue fibrosis, Picro-sirius Red staining, after α-GalCer; type: in vivo, C57BL/6 mice; details: α-GalCer 0.1 μg/g i.p. before and after doxorubicin 20 mg/kg; heart collected 14 days after DOX; vs DOX group; FIG. 3
# Method: as §1, with “Three days after the administration of DOX or PBS, α-GalCer (0.1 μg/g weight) was intraperitoneally administered to the DOX+α-GC group, while PBS was intraperitoneally administered to the Control group and the DOX group.” left out, “FIG. 1 illustrates the test schedules.” left out
# Myocardial tissue fibrosis was evaluated by fixing a frozen section sample of myocardial tissue with 10% formalin and then staining the sample with 3% Picro-sirius Red (100 ml of Van Gieson Solution P (FUJIFILM Wako Pure Chemical Corporation)+3 ml of 1% Sirius Red (MUTO PURE CHEMICALS CO., LTD.)) to detect collagen. […]
# [7] = system: myocardial dysfunction model mice induced by doxorubicin; test: Echocardiography (left ventricular fractional shortening) after α-GalCer in doxorubicin myocardial dysfunction model; type: in vivo, C57BL/6 mice; details: α-GalCer 0.1 μg/g i.p. 4 days before and 3 days after doxorubicin 20 mg/kg i.p.; echocardiography 14 days after DOX; vs DOX group; FIG. 2
# Method: as §1
# The echocardiography was carried out by using an ultrasound recording device EUB-8000 (Hitachi, Ltd.) under anesthesia with pentobarbital. […]
# [8] = comparison between the three groups
compound,measurement,setting,value
CCOC(=O)[C@H](CCc1ccccc1)N[C@@H](C)C(=O)N1CCC[C@H]1C(=O)O [enalapril],left ventricular end-systolic wall stress,[1],reduced a left ventricular end-systolic wall stress
same,other important parameters reflecting a motor ability and the like,[1],failed to improve other important parameters reflecting a motor ability and the like
COCCc1ccc(OCC(O)CNC(C)C)cc1 (stereo not shown) [metoprolol],decrease in left ventricular ejection fraction,[2],did not prevent the decrease in left ventricular ejection fraction
"CCCCCCCCCCCCCCCCCCCCCCCCCC(=O)N[C@@H](CO[C@H]1O[C@H](CO)[C@H](O)[C@H](O)[C@H]1O)[C@H](O)[C@H](O)CCCCCCCCCCCCCC [α-GalCer, α-galactosylceramide]",therapeutic effect on post-myocardial infarction heart failure,[3],confirmed therapeutic effects
same,expression of IFN-γ in myocardial tissue,"[4]; DOX+α-GC group vs Control and DOX groups, FIG. 5",tended to be more enhanced in the DOX+α-GC group than in other groups
same,expression of interleukin-4 (IL-4) in myocardial tissue,"[4]; DOX+α-GC group vs Control and DOX groups, GAPDH endogenous control, FIG. 4, FIG. 5",tended to be more enhanced in the DOX+α-GC group than in other groups
same,expression of other cytokines such as IL-10 in myocardial tissue,"[4]; comparison between Control, DOX and DOX+α-GC groups, FIG. 5",any significant difference in the expression of other cytokines such as IL-10 between the three groups was not observed
same,expression of Arg1 (M2 macrophage marker) in myocardial tissue,[5]; DOX+α-GC group vs other groups,more enhanced in the DOX+α-GC group than in other groups
same,expression of CD11c (activated macrophage marker) in myocardial tissue,[5]; DOX+α-GC group vs other groups,more enhanced in the DOX+α-GC group than in other groups
same,expression of MHC II (activated macrophage marker) in myocardial tissue,[5]; DOX+α-GC group vs other groups,more enhanced in the DOX+α-GC group than in other groups
same,expression of Retnla (M2 macrophage marker) in myocardial tissue,[5]; DOX+α-GC group vs other groups,more enhanced in the DOX+α-GC group than in other groups
same,expression of IL-1β (M1 macrophage marker) in myocardial tissue,[5]; [8],"any significant difference in the expression of MCP-1, iNOS, and IL-1β as M1 macrophage markers between the three groups was not observed"
same,expression of MCP-1 (M1 macrophage marker) in myocardial tissue,[5]; [8],"any significant difference in the expression of MCP-1, iNOS, and IL-1β as M1 macrophage markers between the three groups was not observed"
same,expression of iNOS (M1 macrophage marker) in myocardial tissue,[5]; [8],"any significant difference in the expression of MCP-1, iNOS, and IL-1β as M1 macrophage markers between the three groups was not observed"
same,myocardial tissue fibrosis (ratio of stained area),[6],the progression as observed in the DOX group was significantly suppressed
same,"cardiac function, left ventricular fractional shortening (% FS)",[7],did not show the decrease in cardiac function as observed in the DOX group

# Reference: patent US20220160659A1, “PHARMACEUTICAL COMPOSITION COMPRISING a-GALACTOSYLCERAMIDE AND/OR DENDRITIC CELLS PULSED WITH a-GALACTOSYLCERAMIDE” (National University Corporation Hokkaido University, priority 2019, published 2022)
